For 20 compounds, TGI results are on record in PubChem BioAssay (NCI).

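Values below derive from 48-hour exposures of cells grown in 96-well plates, with endpoints linearly interpolated between the two concentrations bracketing the appropriate inhibition level. At the TGI there is no net growth.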

A word on the TGI: it is the concentration giving total growth inhibition. High values mean less potent growth arrest, low ones more potent growth arrest.

Among the test systems are M19-MEL melanoma; DLD-1 colon; LXFL 529 NSCLC; SNB-78 CNS; XF 498 CNS; KM20L2 colon; HOP-18 NSCLC; DMS 273 small cell lung; RXF-631 renal.
Common to all, as to assay: DTP human tumour cell line panel, 48 h

`O=C(O)c1cc(-c2ccccc2O)nc2ccccc12`: the TGI in the assay on M19-MEL melanoma, in the assay with DLD-1 colon, with LXFL 529 NSCLC, in the assay on SNB-78 CNS, in the assay with XF 498 CNS and with KM20L2 colon was over 100 µM throughout. In the assay with HOP-18 NSCLC, this compound yielded a TGI of over 100 µM.
On to `Cn1c(=O)c2c(nc(C[N+]3([O-])CCOCC3)n2C)n(C)c1=O`, for which the TGI in the assay on M19-MEL melanoma, with DLD-1 colon, in the assay with LXFL 529 NSCLC, in the assay with XF 498 CNS, in the assay with KM20L2 colon and in the assay with DMS 273 small cell lung was over 100 µM in each case.
As for `CCOC(OCC)c1ccc(/C=C/c2cc(OC)c(OC)c(OC)c2)cc1`, the total growth inhibition concentration (TGI) in the assay with M19-MEL melanoma was 37 µM; with DLD-1 colon, 38.8 µM; in the assay with LXFL 529 NSCLC, 41.7 µM; in the assay with SNB-78 CNS, 87.9 µM; with KM20L2 colon it was 41.8 µM; in the assay on DMS 273 small cell lung it was 41.3 µM. The figures for the total growth inhibition concentration (TGI) in the assay with HOP-18 NSCLC and in the assay on RXF-631 renal were over 100 µM and 70.7 µM, respectively.
In the case of `NC1=NC2(O)c3ccccc3C(=O)C2(O)N1` (stereo unspecified), the TGI in the assay with DLD-1 colon, with LXFL 529 NSCLC, in the assay with SNB-78 CNS, with KM20L2 colon, in the assay with DMS 273 small cell lung and in the assay on HOP-18 NSCLC was over 100 µM each time. This compound had a concentration for total growth inhibition (TGI) in the assay with RXF-631 renal of over 100 µM.
Consider `COc1ccc(/C=C2\N=C(c3ccccc3)N(Nc3nnc(NN4C(=O)/C(=C/c5ccc(OC)cc5)N=C4c4ccccc4)c4ccccc34)C2=O)cc1`, for which the concentration for total growth inhibition (TGI) in the assay with M19-MEL melanoma, in the assay on DLD-1 colon, in the assay on LXFL 529 NSCLC, in the assay on SNB-78 CNS, with KM20L2 colon and in the assay on DMS 273 small cell lung was over 100 µM each time. Also, the TGI with HOP-18 NSCLC is over 100 µM.
For the compound `CC(=O)OC1OC2C(NC(=O)OC(C)(C)C)C1CC2(OCc1ccccc1)OCc1ccccc1` (stereo unspecified), the concentration for total growth inhibition (TGI) in the assay with M19-MEL melanoma was over 74.1 µM; in the assay on LXFL 529 NSCLC, over 100 µM; in the assay with SNB-78 CNS, over 100 µM; in the assay on XF 498 CNS, 41.9 µM; in the assay with KM20L2 colon, 39.3 µM; in the assay on DMS 273 small cell lung, 69.5 µM. Further, the total growth inhibition concentration (TGI) with HOP-18 NSCLC was 46.5 µM; in the assay with RXF-631 renal, over 100 µM.
With `CC(NC(=O)/C(C#N)=C/c1ccc2[nH]ccc2c1)c1ccccc1` (stereo unspecified), the TGI in the assay with DLD-1 colon was found to be 34.5 µM; in the assay on LXFL 529 NSCLC it was 41.4 µM; in the assay on SNB-78 CNS, 90.4 µM; in the assay on KM20L2 colon, 33.2 µM; in the assay on DMS 273 small cell lung, 40.7 µM; with HOP-18 NSCLC, 53.3 µM.
As for `O=C1C(Cl)C(c2ccc(Cl)cc2)N1n1cnc2ccccc2c1=O` (stereo unspecified), the TGI in the assay on M19-MEL melanoma, with DLD-1 colon, in the assay with LXFL 529 NSCLC, in the assay with SNB-78 CNS, with XF 498 CNS and in the assay on KM20L2 colon was over 100 µM each time. The total growth inhibition concentration (TGI) in the assay with DMS 273 small cell lung and with HOP-18 NSCLC was over 100 µM throughout.
For the compound `COc1cccc(/C(C=O)=C(\Cl)c2ccc(OC)c(OC)c2)c1`, the TGI in the assay with M19-MEL melanoma is 23.4 µM; in the assay on DLD-1 colon, 25.5 µM; in the assay on LXFL 529 NSCLC it was 24.4 µM; with SNB-78 CNS, 37.7 µM; with XF 498 CNS, 31.1 µM; with KM20L2 colon, 44.1 µM. Moreover, the concentration for total growth inhibition (TGI) with DMS 273 small cell lung was found to be 27.3 µM; in the assay on HOP-18 NSCLC it was 27.8 µM.
As to `NC12CC3CC(C1)CC(Cl)(C3)C2`, the concentration for total growth inhibition (TGI) in the assay with M19-MEL melanoma, in the assay on DLD-1 colon, in the assay with LXFL 529 NSCLC, in the assay on SNB-78 CNS, in the assay on XF 498 CNS and in the assay with KM20L2 colon was over 100 µM each time. Moreover, the concentration for total growth inhibition (TGI) in the assay with DMS 273 small cell lung and with RXF-631 renal was over 100 µM in each case.
On to `COc1ccc(-c2onc(-c3c(C)cc(C)cc3C)c2C2=NCCCN2)cc1`, for which the TGI in the assay on M19-MEL melanoma, in the assay on DLD-1 colon, in the assay on LXFL 529 NSCLC, in the assay with SNB-78 CNS, in the assay with XF 498 CNS and in the assay with KM20L2 colon was over 100 µM in each case. In addition, the TGI with HOP-18 NSCLC and in the assay on RXF-631 renal was over 100 µM throughout.
`CCOC(=O)c1nc2ccc(Cl)cc2c2c1CCO2`: the concentration for total growth inhibition (TGI) with M19-MEL melanoma, in the assay on DLD-1 colon, with LXFL 529 NSCLC, in the assay on SNB-78 CNS, in the assay on XF 498 CNS and in the assay on KM20L2 colon was over 100 µM throughout. Also, the concentration for total growth inhibition (TGI) with DMS 273 small cell lung and with HOP-18 NSCLC was over 100 µM in each case.
For the compound `C=C1CC2(OC1=O)c1ccccc1C=Cc1ccccc12`, the TGI is 11.8 µM in the assay on M19-MEL melanoma; 3.76 µM in the assay with DLD-1 colon; 7.14 µM in the assay on LXFL 529 NSCLC; 9.3 µM in the assay with SNB-78 CNS; 26.5 µM with XF 498 CNS; 20.5 µM in the assay with KM20L2 colon. In addition, the TGI in the assay on DMS 273 small cell lung was 28.2 µM; in the assay with HOP-18 NSCLC, 27.4 µM; in the assay with RXF-631 renal it was 33.1 µM.
Consider `COC(=O)[C@H]1C=C[C@@H](C)n2c(=O)c3ccccc3c(=O)n21`, for which the TGI in the assay on M19-MEL melanoma, with DLD-1 colon, with LXFL 529 NSCLC, with SNB-78 CNS, in the assay with XF 498 CNS and in the assay on KM20L2 colon was over 100 µM each time. In the assay on DMS 273 small cell lung, this compound yielded a total growth inhibition concentration (TGI) of over 100 µM.
Consider `CC(=O)c1c(O)ccc2c1CC(CC=O)O2` (stereo unspecified), for which the TGI with M19-MEL melanoma, with DLD-1 colon, in the assay on LXFL 529 NSCLC, with SNB-78 CNS, with XF 498 CNS and in the assay on KM20L2 colon was over 100 µM in each case. For the same compound, the TGI in the assay on RXF-631 renal is over 100 µM.
Turning to `NC(=O)C12C3C4C1C1C2C3C41C(N)=O` (stereo unspecified), the concentration for total growth inhibition (TGI) with M19-MEL melanoma, in the assay with DLD-1 colon, in the assay on LXFL 529 NSCLC, in the assay with KM20L2 colon, in the assay with DMS 273 small cell lung and in the assay on HOP-18 NSCLC was over 100 µM each time.
On to `C/C(=N\NS(=O)(=O)c1ccc(C)cc1)C(CN(C)C)C(c1ccccc1)c1c(O)c2ccccc2oc1=O` (stereo unspecified), for which the total growth inhibition concentration (TGI) in the assay with M19-MEL melanoma, in the assay with DLD-1 colon, in the assay on LXFL 529 NSCLC, in the assay with SNB-78 CNS, in the assay on XF 498 CNS and with KM20L2 colon was over 100 µM each time. Also, the TGI with HOP-18 NSCLC and in the assay with RXF-631 renal was over 100 µM throughout.
Regarding `CN(C)CCCSc1c2ccccc2nc2cc(NCC(=O)Nc3ccccc3-c3ccccc3NC(=O)CNc3ccc4c(SCCCN(C)C)c5ccccc5nc4c3)ccc12`, the concentration for total growth inhibition (TGI) with M19-MEL melanoma, in the assay with DLD-1 colon, with LXFL 529 NSCLC, in the assay on SNB-78 CNS, in the assay with XF 498 CNS and in the assay with KM20L2 colon was over 100 µM in each case. Further, the TGI with DMS 273 small cell lung and in the assay on HOP-18 NSCLC was over 100 µM in each case.
Turning to `NC(=O)c1csc(CCCCCCc2nc(C(N)=O)cs2)n1`, the TGI in the assay with M19-MEL melanoma is 49.3 µM; with DLD-1 colon, over 100 µM; in the assay with LXFL 529 NSCLC, over 100 µM; in the assay with SNB-78 CNS, over 100 µM; in the assay with KM20L2 colon, over 100 µM; with DMS 273 small cell lung, over 100 µM. For the same compound, the total growth inhibition concentration (TGI) with HOP-18 NSCLC and with RXF-631 renal was over 100 µM throughout.
Regarding `COC1=CC(C2c3cc4c(cc3[C@@H](Nc3ccc([N+](=O)[O-])cc3)C3COC(=O)[C@H]23)OCO4)=CC(=O)C1=O` (stereo partly specified), the TGI was 45.2 µM in the assay with M19-MEL melanoma; over 96.7 µM in the assay with DLD-1 colon; over 78.7 µM with LXFL 529 NSCLC; over 100 µM in the assay on SNB-78 CNS; 50.7 µM in the assay on XF 498 CNS; over 62.6 µM with KM20L2 colon. Further, the total growth inhibition concentration (TGI) is 5.12 µM in the assay on DMS 273 small cell lung, over 100 µM with HOP-18 NSCLC and 14.1 µM in the assay with RXF-631 renal.
